US7119115B2, “Indazole or indole derivatives, and use thereof in human medicine and more particularly in oncology” (Aventis Pharma S.A., priority 2001, dated 2006)
pIC50: −log10 of the molar value.

Key:
Tubulin = biological target: T1, Tubulin (Sus scrofa, UniProt P02550+P02554); assay: Evaluation of the inhibition of tubulin polymerization (turbidimetry at 350 nm); assay type: biochemical; conditions: concentration that inhibits the rate of polymerization by 50%; pig brain tubulin 10 μM
T1 construct: Tubulin is purified from pig brain according to published methods; from tissue; host or cells: pig brain
Experimental: Briefly, the brains are ground and centrifuged in an extraction buffer. The tubulin contained in the supernatant of the extract undergoes two successive cycles of polymerization at 37° C. and depolymerization at 4° C., before being separated from the MAPs (Microtubule Associated Proteins) by chromatography on a phosphocellulose P11 column (Whatman). […] It is stored in a buffer known as RB/2 30% glycerol, the composition of which is 50 mM MES-NaOH [2-(N-morpholino)ethanesulphonic acid], pH 6.8; 0.25 mM MgCl2; 0.5 mM EGTA; 30% glycerol (v/v), 0.2 mM GTP (guanosine-5′-triphosphate).
The polymerization of tubulin to microtubules is monitored by turbidimetry as follows: the tubulin is adjusted to a concentration of 10 μM (1 mg/ml) in RB/2 30% glycerol buffer to which 1 mM GTP and 6 mM MgCl2 are added. […] The increase in the turbidity of the solution is monitored at 350 nm.
The products are dissolved at 10 mM in DMSO and added at variable concentrations (0.5 to 10 μM) to the tubulin solution before polymerization.

[1] = system: HDMEC cells (Human Dermal Microvascular Endothelial Cells); assay: Detachment of endothelial cells in vitro (test for determining the inhibition of vascularization); assay type: cell-based; conditions: two hours of treatment, relative to control (untreated cells); for inhibition at 1 µM: Homo sapiens, Endothelial cell, 2 h
Source text: A test for determining the detachment of the endothelial cells was developed in order to select the products with regard to their “in vitro” activity. This test for determining the detachment of endothelial cells is characterized in that the endothelial cells, inoculated into plates whose bottom is covered with a binder preferably chosen from gelatin, fibronectin and vitronectin, after culturing, are supplemented with a medium containing the test compound, and the cells are then labelled with a fluorescent substance, the cells which have become detached are removed by washing and the fluorescence of the remaining cells is counted in a fluorimeter.
This test consists in measuring the detachment of endothelial cells cultured on substrata based on a binder preferably chosen from fibronectin, vitronectin and gelatin. Preferably, a day after the inoculation of the cells in plates containing, for example, 96 wells, the culture medium is replaced with a medium containing the test compound in the absence of serum. The same preparation is prepared six times at three different concentrations ([…]) and the control six times without addition of antivascular product. After two hours of treatment with the test substance, the cells are labelled with calcein-AM (1.6 μg/ml) in culture medium supplemented with 0.1% BSA. The cells that have become detached are removed by washing with the culture medium containing 0.1% bovine serum albumin; 100 μl of medium are added to each well. The fluorescence of the remaining cells is counted in a fluorimeter. The data obtained are expressed relative to the control (untreated cells).
The evaluation of the detachment of the endothelial cells in vitro is determined in the following manner. HDMEC cells (Human Dermal Microvascular Endothelial Cells, Promocell, c-122102) are cultured in an ECGM-MV medium that contains 5% foetal calf serum, growth factors (EGF 10 ng/ml, hydrocortisone 1 μg/ml, 0.4% growth supplement with heparin) and antibiotics (amphotericin 50 ng/ml, gentamycin 50 μg/ml). For the detachment test, the HDMECs are inoculated at a rate of 5 000 cells in clear-bottomed 96-well plates (Costar) precoated with fibronectin (10 μg/ml), vitronectin (1 μg/ml) or gelatin. Twenty-four hours later, the culture medium is replaced with ECGM-MV 0.1% BSA medium containing the products indicated. The concentrations tested are 0.1–0.3 and 1 μM for each product. After two hours of treatment, the cells are labelled for one hour with calcein (1.6 μg/ml, Molecular Probes) in ECGM-MV 0.1% BSA medium. The detached cells are then removed by washing with ECGM-MV 0.1% BSA medium; 100 μl of medium is added to each well. The fluorescence of the cells that remain attached to the substratum of the well is counted using a fluorimeter, Spectrafluor Plus (Tecan excitation 485 nm, and emission 535 nm). The data are the mean of six different samples and are expressed as the percentage of the control (untreated cells).
A cell detachment effect of greater than or equal to 15% is considered as significant.

T1 sequence (P02550 whole entry): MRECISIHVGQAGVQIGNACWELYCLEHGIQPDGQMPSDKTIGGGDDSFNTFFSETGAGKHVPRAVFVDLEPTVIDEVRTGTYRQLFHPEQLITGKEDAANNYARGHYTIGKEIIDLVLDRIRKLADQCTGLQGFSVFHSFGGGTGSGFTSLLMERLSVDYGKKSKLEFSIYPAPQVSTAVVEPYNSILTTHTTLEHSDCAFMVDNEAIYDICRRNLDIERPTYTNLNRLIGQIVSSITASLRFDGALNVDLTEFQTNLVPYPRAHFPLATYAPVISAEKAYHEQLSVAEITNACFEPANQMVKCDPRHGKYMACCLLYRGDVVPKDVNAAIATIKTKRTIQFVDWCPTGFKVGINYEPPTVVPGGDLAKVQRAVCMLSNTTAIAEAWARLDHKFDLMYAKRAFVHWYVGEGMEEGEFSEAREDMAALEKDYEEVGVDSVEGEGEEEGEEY
T1 sequence (P02554 whole entry): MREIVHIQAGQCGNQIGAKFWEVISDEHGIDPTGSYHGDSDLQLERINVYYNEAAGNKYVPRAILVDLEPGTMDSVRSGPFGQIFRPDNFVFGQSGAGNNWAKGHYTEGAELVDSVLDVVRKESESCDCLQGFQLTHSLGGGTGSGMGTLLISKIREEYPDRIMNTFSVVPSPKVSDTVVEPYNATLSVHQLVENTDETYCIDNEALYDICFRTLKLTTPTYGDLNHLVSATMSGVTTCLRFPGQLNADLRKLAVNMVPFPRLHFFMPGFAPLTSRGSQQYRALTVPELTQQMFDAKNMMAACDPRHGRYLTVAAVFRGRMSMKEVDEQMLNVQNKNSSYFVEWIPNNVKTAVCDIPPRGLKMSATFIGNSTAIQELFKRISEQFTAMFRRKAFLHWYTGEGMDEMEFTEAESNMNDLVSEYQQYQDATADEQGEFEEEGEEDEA

Molecule	pIC50 (Tubulin)	melting point [°C]	inhibition at 1 µM [1] [%]	% detachment 1 μM [1] [%]
O=C(c1n[nH]c2c1C=CC(c1ccccc1)(c1ccccc1)C2)C1CC1 [Example 5-1, Cyclopropyl(6,6-diphenyl-6,7-dihydro-1H-indazol-3-yl)methanone]	6.10		29	
(R,S)-cyclopropyl[6-(4-fluorophenyl)-6-phenyl-6,7-dihydro-1H-indazol-3-yl]methanone [Example 10-4A]	6.00			33
O=C(c1n[nH]c2c1C=CC(c1ccccc1)(c1ccccc1)C2)N1CCC1 [Example 3-2, Azetidin-1-yl(6,6-diphenyl-6,7-dihydro-1H-indazol-3-yl)methanone]	5.35	285		
ON=C(c1n[nH]c2c1C=CC(c1ccccc1)(c1ccccc1)C2)C1CCC1 [Example 6-2A, cyclobutyl(6,6-diphenyl-6,7-dihydro-1H-indazol-3-yl)methanone oxime]	6.00		18	
CON=Cc1n[nH]c2c1C=CC(c1ccccc1)(c1ccccc1)C2 (mixture of isomers) [Example 6-4, 6,6-diphenyl-6,7-dihydro-1H-indazole-3-carbaldehyde O-methyloxime]	5.22	184		
CON=C(c1[nH]nc2c1C=CC(c1ccccc1)(c1ccccc1)C2)C1CC1 [Example 6-3A, cyclopropyl(6,6-diphenyl-6,7-dihydro-2H-indazol-3-yl)methanone O-methyloxime]	6.10		26	
ON=C(c1n[nH]c2c1C=CC(c1ccccc1)(c1ccccc1)C2)C1CC1 (single isomer, unassigned) [Example 6-1A, cyclopropyl(6,6-diphenyl-6,7-dihydro-1H-indazol-3-yl)methanone oxime]	6.22		34	
CCOC(=O)c1[nH]nc2c1C=CC(c1ccccc1)(c1ccccc1)C2 [Example 1, Ethyl 6,6-diphenyl-6,7-dihydro-2H-indazole-3-carboxylate]	5.82		20	
C=CC(=O)n1nc(N)c2c1CC(c1ccccc1)(c1ccccc1)C=C2 [Example 7-2, 1-(3-Amino-6,6-diphenyl-6,7-dihydroindazol-1-yl)propenone]	5.30		25	
O=C(Nc1n[nH]c2c1C=CC(c1ccccc1)(c1ccccc1)C2)c1ccccc1 [Example 7-4, N-[6,6-Diphenyl-6,7-dihydro-1H-indazol-3-yl]benzamide]	5.22		18	
O=C(c1n[nH]c2c1C=CC(c1ccccc1)(c1ccccc1)C2)C1CCC1 [Example 5-2, Cyclobutyl(6,6-diphenyl-6,7-dihydro-1H-indazol-3-yl)methanone]	5.96		19	
C=CCO/N=C(\c1n[nH]c2c1C=CC(c1ccccc1)(c1ccccc1)C2)C1CC1 [Example 6-6A, cyclopropyl(6,6-diphenyl-6,7-dihydro-1H-indazol-3-yl)methanone O-allyloxime]	6.00		17	
O=C(NC1CC1)c1n[nH]c2c1C=CC(c1ccccc1)(c1ccccc1)C2 [Example 3-1, N-(cyclopropyl)-6,6-diphenyl-6,7-dihydro-1H-indazole-3-carboxamide]	5.60		20	

Further lines, with some results ahead:

pIC50 (Tubulin)	melting point [°C]	Molecule	inhibition at 1 µM [1] [%]	% detachment 1 μM [1] [%]
5.70		CCOC(=O)c1c[nH]c2c1C=CC(c1ccccc1)(c1ccccc1)C2 [Example 12, Ethyl 6,6-diphenyl-6,7-dihydro-1H-indole-3-carboxylate]	17	
5.05		Cc1noc(-c2n[nH]c3c2C=CC(c2ccccc2)(c2ccccc2)C3)n1 [Example 8-1, 3-(3-Methyl[1,2,4]oxadiazol-5-yl)-6,6-diphenyl-6,7-dihydro-1H-indazole]	24	
6.00		ON=C(c1n[nH]c2c1C=CC(c1ccccc1)(c1ccc(F)cc1)C2)C1CC1 (single isomer, unassigned) [Example 10-5A]	25	
6.00		CCOC(=O)c1n[nH]c2c1C=CC(c1ccccc1)(c1ccc(F)cc1)C2 (single isomer, unassigned) [Example 10-3B, ethyl 6-(4-fluorophenyl)-6-phenyl-6,7-dihydro-1H-indazole-3-carboxylate]	19	
5.82		O/N=C(\c1n[nH]c2c1C=CC(c1ccc(F)cc1)(c1ccc(F)cc1)C2)C1CC1 [Example 10-8A, cyclopropyl[6,6-bis(4-fluorophenyl)-6,7-dihydro-1H-indazol-3-yl]methanone oxime]	17	
5.92		CCOC(=O)c1n[nH]c2c1C=CC(c1ccccc1)(c1ccc(F)cc1)C2 (racemic) [Example 10-3A, ethyl (R,S)-6-(4-fluorophenyl)-6-phenyl-6,7-dihydro-1H-indazole-3-carboxylate]	16	
6.00		O=C(c1n[nH]c2c1C=CC(c1ccc(F)cc1)(c1ccc(F)cc1)C2)C1CC1 [Example 10-7, Cyclopropyl[6,6-bis(4-fluorophenyl)-6,7-dihydro-1H-indazol-3-yl]methanone]	24	
